Experimental data: patent USRE48461E1, “Modulation of androgen receptor expression” (Ionis Pharmaceuticals, Inc., priority 2012, dated 2021)
pIC50: −log10 of the molar value. Values joined by “and” are separate entries in the source; they are usually repeats but may differ in a detail not shown here. Equal values may be shown once. Oligonucleotides are written 5' to 3', each unit as a sugar letter and its base; * is a phosphorothioate linkage, no mark a phosphodiester; rarer units and linkages stand in square brackets, end groups in braces. Plain capitals give the bases only. k = constrained ethyl (cEt); [5mC] = 5-methylcytosine; d = 2'-deoxy (DNA)

How the values were obtained:
AR mRNA [1] = test: Antisense inhibition of human AR in HuVEC cells, single concentration (electroporation, qRT-PCR RTS3559); assay type: cell-based
How it was run: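 AR mRNA levels were measured with human primer-probe set RTS3559 and adjusted for total RNA (RIBOGREEN). Cells were HuVEC, with each antisense oligonucleotide delivered by electroporation at one concentration.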

AR mRNA [2] = test: Dose-dependent antisense inhibition of human AR in HuVEC cells (electroporation, qRT-PCR RTS3559, IC50); assay type: cell-based; settings: HuVEC
How it was run: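 HuVEC cells dosed with antisense oligonucleotides by electroporation and treated approximately 16 hours. AR mRNA quantified by real-time qPCR with primer probe set RTS3559 and normalised to total RNA by RIBOGREEN; IC50 from dose-response.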

[3] = Table 20, 500 nM oligonucleotide, electroporation, approximately 24 hours, relative to untreated control
[4] = Table 32, electroporation, approximately 16 hours
[5] = Table 31, electroporation, approximately 16 hours
[6] = Table 34, electroporation, approximately 16 hours
[7] = Table 19, 500 nM oligonucleotide, electroporation, approximately 24 hours, relative to untreated control
[8] = Table 29, electroporation, approximately 16 hours
[9] = Table 30, electroporation, approximately 16 hours

583864 (k[5mC]*kA*kG*dT*dG*d[5mC]*dT*d[5mC]*dT*dT*dG*d[5mC]*d[5mC]*kT*kG*k[5mC]; antisense) [compound 583864]
% inhibition (AR mRNA [1]; [3]): 46%
percent inhibition of AR, 187.5 nM (AR mRNA [2]; Table 32, electroporation, approximately 16 hours, 0.1875 µM): 49% and 47%
percent inhibition of AR, 750.0 nM (AR mRNA [2]; Table 32, electroporation, approximately 16 hours, 0.75 µM): 72% and 62%
percent inhibition of AR, 3000.0 nM (AR mRNA [2]; [4]): 85%

560137 (antisense TTGATTTAATGGTTGC; all C 5-methyl, all phosphorothioate, sugars by position not given here; further chemistry not fully specified) [compound 560137]
% inhibition (AR mRNA [1]; 250 nM ASO, ~24 h, Table 7): 66%
% inhibition (AR mRNA [1]; 500 nM ASO, ~24 h, Table 5): 95%
percent inhibition of AR (AR mRNA [2]; 31.25 nM, ~16 h, Table 6): 27%
percent inhibition of AR (AR mRNA [2]; 31.25 nM, ~16 h, Table 8): 35%
percent inhibition of AR (AR mRNA [2]; 62.5 nM, ~16 h, Table 6): 49%
percent inhibition of AR (AR mRNA [2]; 62.5 nM, ~16 h, Table 8): 39%
percent inhibition of AR (AR mRNA [2]; 125.0 nM, ~16 h, Table 6): 61%
percent inhibition of AR (AR mRNA [2]; 125.0 nM, ~16 h, Table 8): 64%
percent inhibition of AR (AR mRNA [2]; 500.0 nM, ~16 h, Table 6): 91%
percent inhibition of AR (AR mRNA [2]; 500.0 nM, ~16 h, Table 8): 89%
percent inhibition of AR (AR mRNA [2]; 1000.0 nM, ~16 h, Table 6): 96%
percent inhibition of AR (AR mRNA [2]; 1000.0 nM, ~16 h, Table 8): 94%
pIC50 (AR mRNA [2]; ~16 h, Table 6): 7.00
pIC50 (AR mRNA [2]; ~16 h, Table 8): 7.10

583714 (antisense kT*k[5mC]*k[5mC]*dA*dT*d[5mC]*d[5mC]*dT*dT*dG*dA*dG*d[5mC]*kT*kT*kG) [compound 583714]
% inhibition (AR mRNA [1]; 500 nM ASO, ~24 h, Table 18): 36%
percent inhibition of AR, 46.9 nM (AR mRNA [2]; [5]): 22%
percent inhibition of AR, 187.5 nM (AR mRNA [2]; [5]): 34%
percent inhibition of AR, 750.0 nM (AR mRNA [2]; [5]): 59%
percent inhibition of AR, 3000.0 nM (AR mRNA [2]; [5]): 79%
pIC50 (AR mRNA [2]; [5]): 6.40

583996 (k[5mC]*kG*k[5mC]*d[5mC]*dA*dG*dG*dG*dT*dA*d[5mC]*d[5mC]*dA*k[5mC]*kA*k[5mC]; antisense) [compound 583996]
% inhibition (AR mRNA [1]; Table 22, 500 nM oligonucleotide, electroporation, approximately 24 hours, relative to untreated control): 33%
percent inhibition of AR, 46.9 nM (AR mRNA [2]; [6]): 26%
percent inhibition of AR, 187.5 nM (AR mRNA [2]; [6]): 12%
percent inhibition of AR, 750.0 nM (AR mRNA [2]; [6]): 50%
percent inhibition of AR, 3000.0 nM (AR mRNA [2]; [6]): 70%
pIC50 (AR mRNA [2]; [6]): 6.15

583759 (antisense kG*k[5mC]*kT*dG*dT*dT*d[5mC]*d[5mC]*dT*d[5mC]*dA*dT*d[5mC]*k[5mC]*kA*kG) [compound 583759]
% inhibition (AR mRNA [1]; [7]): 38%
percent inhibition of AR, 46.9 nM (AR mRNA [2]; [4]): 5%
percent inhibition of AR, 187.5 nM (AR mRNA [2]; [4]): 28%
percent inhibition of AR, 750.0 nM (AR mRNA [2]; [4]): 61%
percent inhibition of AR, 3000.0 nM (AR mRNA [2]; [4]): 67%
pIC50 (AR mRNA [2]; [4]): 6.20

583795 (antisense kT*kG*k[5mC]*dT*dG*dT*dT*dG*d[5mC]*dT*dG*dA*dA*kG*kG*kA) [compound 583795]
% inhibition (AR mRNA [1]; [7]): 63%
percent inhibition of AR, 46.9 nM (AR mRNA [2]; [5]): 37%
percent inhibition of AR, 187.5 nM (AR mRNA [2]; [5]): 61%
percent inhibition of AR, 750.0 nM (AR mRNA [2]; [5]): 83%
percent inhibition of AR, 3000.0 nM (AR mRNA [2]; [5]): 90%
pIC50 (AR mRNA [2]; [5]): 7.05

583583 (antisense kG*kA*k[5mC]*dT*dG*dA*dG*dG*d[5mC]*dA*dG*d[5mC]*dT*kG*k[5mC]*kG) [compound 583583]
% inhibition (AR mRNA [1]; 500 nM ASO, ~24 h, Table 16): 45%
percent inhibition of AR, 46.9 nM (AR mRNA [2]; [8]): 21%
percent inhibition of AR, 187.5 nM (AR mRNA [2]; [8]): 31%
percent inhibition of AR, 750.0 nM (AR mRNA [2]; [8]): 49%
percent inhibition of AR, 3000.0 nM (AR mRNA [2]; [8]): 64%
pIC50 (AR mRNA [2]; [8]): 6.10

583799 (antisense kT*kG*k[5mC]*d[5mC]*dT*dT*d[5mC]*dG*dG*dA*dT*dA*d[5mC]*kT*kG*k[5mC]) [compound 583799]
% inhibition (AR mRNA [1]; [7]): 65%
percent inhibition of AR, 46.9 nM (AR mRNA [2]; [5]): 29%
percent inhibition of AR, 187.5 nM (AR mRNA [2]; [5]): 60%
percent inhibition of AR, 750.0 nM (AR mRNA [2]; [5]): 76%
percent inhibition of AR, 3000.0 nM (AR mRNA [2]; [5]): 85%
pIC50 (AR mRNA [2]; [5]): 6.85

584125 (kG*k[5mC]*k[5mC]*dA*dT*dG*dA*dG*dA*d[5mC]*dA*dG*d[5mC]*kT*kT*kT; antisense) [compound 584125]
% inhibition (AR mRNA [1]; Table 23, 500 nM oligonucleotide, electroporation, approximately 24 hours, relative to untreated control): 35%
percent inhibition of AR, 46.9 nM (AR mRNA [2]; [6]): 12%
percent inhibition of AR, 187.5 nM (AR mRNA [2]; [6]): 12%
percent inhibition of AR, 750.0 nM (AR mRNA [2]; [6]): 47%
percent inhibition of AR, 3000.0 nM (AR mRNA [2]; [6]): 76%
pIC50 (AR mRNA [2]; [6]): 6.14

583834 (kA*kG*k[5mC]*dT*dG*dT*dT*d[5mC]*d[5mC]*d[5mC]*d[5mC]*dT*dG*kG*kA*k[5mC]; antisense) [compound 583834]
% inhibition (AR mRNA [1]; [3]): 52%
percent inhibition of AR, 46.9 nM (AR mRNA [2]; [4]): 34%
percent inhibition of AR, 187.5 nM (AR mRNA [2]; [4]): 54%
percent inhibition of AR, 750.0 nM (AR mRNA [2]; [4]): 73%
percent inhibition of AR, 3000.0 nM (AR mRNA [2]; [4]): 84%
pIC50 (AR mRNA [2]; [4]): 6.89

583836 (k[5mC]*k[5mC]*kG*dA*dA*dG*d[5mC]*dT*dG*dT*dT*d[5mC]*d[5mC]*k[5mC]*k[5mC]*kT; antisense) [compound 583836]
% inhibition (AR mRNA [1]; [3]): 37%
percent inhibition of AR, 46.9 nM (AR mRNA [2]; [4]): 11%
percent inhibition of AR, 187.5 nM (AR mRNA [2]; [4]): 27%
percent inhibition of AR, 750.0 nM (AR mRNA [2]; [4]): 67%
percent inhibition of AR, 3000.0 nM (AR mRNA [2]; [4]): 86%
pIC50 (AR mRNA [2]; [4]): 6.41

583802 (antisense k[5mC]*kT*k[5mC]*dG*d[5mC]*dT*d[5mC]*dT*d[5mC]*d[5mC]*d[5mC]*dG*d[5mC]*kT*kG*k[5mC]) [compound 583802]
% inhibition (AR mRNA [1]; [7]): 37%
percent inhibition of AR, 46.9 nM (AR mRNA [2]; [4]): 17%
percent inhibition of AR, 187.5 nM (AR mRNA [2]; [4]): 25%
percent inhibition of AR, 750.0 nM (AR mRNA [2]; [4]): 47%
percent inhibition of AR, 3000.0 nM (AR mRNA [2]; [4]): 60%
pIC50 (AR mRNA [2]; [4]): 5.97

583787 (antisense kG*kG*kT*dG*d[5mC]*dT*dG*dG*d[5mC]*d[5mC]*dT*d[5mC]*dG*k[5mC]*kT*k[5mC]) [compound 583787]
% inhibition (AR mRNA [1]; [7]): 37%
percent inhibition of AR, 46.9 nM (AR mRNA [2]; [4]): 15%
percent inhibition of AR, 187.5 nM (AR mRNA [2]; [4]): 31%
percent inhibition of AR, 750.0 nM (AR mRNA [2]; [4]): 66%
percent inhibition of AR, 3000.0 nM (AR mRNA [2]; [4]): 74%
pIC50 (AR mRNA [2]; [4]): 6.37

583689 (antisense kA*kT*kG*d[5mC]*dG*dG*dT*dA*dG*dT*d[5mC]*dG*d[5mC]*kT*kG*k[5mC]) [compound 583689]
% inhibition (AR mRNA [1]; 500 nM ASO, ~24 h, Table 18): 39%
percent inhibition of AR, 46.9 nM (AR mRNA [2]; [9]): 20%
percent inhibition of AR, 187.5 nM (AR mRNA [2]; [9]): 34%
percent inhibition of AR, 750.0 nM (AR mRNA [2]; [9]): 62%
percent inhibition of AR, 3000.0 nM (AR mRNA [2]; [9]): 74%
pIC50 (AR mRNA [2]; [9]): 6.36

583608 (antisense kG*k[5mC]*kT*dA*dG*d[5mC]*dT*d[5mC]*dG*d[5mC]*d[5mC]*d[5mC]*dG*k[5mC]*kT*k[5mC]) [compound 583608]
% inhibition (AR mRNA [1]; 500 nM ASO, ~24 h, Table 17): 51%
percent inhibition of AR, 46.9 nM (AR mRNA [2]; [8]): 12%
percent inhibition of AR, 187.5 nM (AR mRNA [2]; [8]): 46%
percent inhibition of AR, 750.0 nM (AR mRNA [2]; [8]): 67%
percent inhibition of AR, 3000.0 nM (AR mRNA [2]; [8]): 76%
pIC50 (AR mRNA [2]; [8]): 6.46
